Legend:
Type in all cases: functional
[1] = tested on: SF-539; experiment: Cytotoxicity against human SF539 cells by SRB assay; conditions: read-out: LC50 (the source's name)
[2] = tested on: A549; experiment: cells; conditions: Homo sapiens
Description: Growth inhibition of human A549 cells assessed as drug level required for 50% reduction in net protein increase by SRB assay relative to control

[3] = tested on: UACC-257; experiment: Cytotoxicity against human UACC257 cells by SRB assay; conditions: read-out: LC50 (the source's name)
[4] = tested on: NCI-H322M; experiment: Cytotoxicity against human NCI-H322M cells by SRB assay; conditions: read-out: LC50 (the source's name)
[5] = tested on: CCRF-CEM; experiment: Cytotoxicity against human CCRF-CEM cells by SRB assay; conditions: read-out: LC50 (the source's name)
[6] = tested on: HT-29; experiment: cells; conditions: Homo sapiens
Description: Growth inhibition of human HT-29 cells assessed as cell growth at 10 uM by SRB assay

[7] = tested on: OVCAR-8; experiment: Cytotoxicity against human OVCAR8 cells by SRB assay; conditions: read-out: LC50 (the source's name)
[8] = tested on: RXF 393; experiment: Cytotoxicity against human RFX393 cells by SRB assay; conditions: read-out: LC50 (the source's name)
[9] = tested on: HCC 2998; experiment: cells; conditions: Homo sapiens
Description: Growth inhibition of human HCC2998 cells assessed as drug level required for 50% reduction in net protein increase by SRB assay relative to control

[10] = tested on: A498; experiment: cells; conditions: Homo sapiens
Description: Growth inhibition of human A498 cells assessed as cell growth at 10 uM by SRB assay

[11] = tested on: HL-60(TB); experiment: Cytotoxicity against human HL-60(TB) cells by SRB assay; conditions: read-out: LC50 (the source's name)
[12] = tested on: NCI-H226; experiment: Cytotoxicity against human NCI-H226 cells by SRB assay; conditions: read-out: LC50 (the source's name)
[13] = tested on: K562; experiment: Cytotoxicity against human K562 cells by SRB assay; conditions: read-out: LC50 (the source's name)
[14] = tested on: LOX IMVI; experiment: cells; conditions: Homo sapiens
Description: Growth inhibition of human LOXIMVI cells assessed as drug level required for 50% reduction in net protein increase by SRB assay relative to control

[15] = tested on: MDA-MB-231; experiment: Cytotoxicity against human MDA-MB-231 cells by SRB assay; conditions: read-out: LC50 (the source's name)
[16] = tested on: HOP-92; experiment: Cytotoxicity against human HOP92 cells by SRB assay; conditions: read-out: LC50 (the source's name)
[17] = tested on: EKVX; experiment: Cytotoxicity against human EKVX cells by SRB assay; conditions: read-out: LC50 (the source's name)
[18] = tested on: UACC-62; experiment: Cytotoxicity against human UACC62 cells by SRB assay; conditions: read-out: LC50 (the source's name)
[19] = tested on: SR; experiment: cells; conditions: Homo sapiens
Description: Growth inhibition of human SR cells assessed as cell growth at 10 uM by SRB assay

[20] = tested on: NCI/ADR-RES; experiment: Cytotoxicity against human NCI/ADR-RES cells by SRB assay; conditions: read-out: LC50 (the source's name)
[21] = tested on: ACHN; experiment: Cytotoxicity against human ACHN cells by SRB assay; conditions: read-out: LC50 (the source's name)
[22] = tested on: SN12C; experiment: Cytotoxicity against human SN12C cells by SRB assay; conditions: read-out: LC50 (the source's name)
[23] = tested on: U-251; experiment: Cytotoxicity against human U251 cells by SRB assay; conditions: read-out: LC50 (the source's name)
[24] = tested on: DU-145; experiment: cells; conditions: Homo sapiens
Description: Growth inhibition of human DU145 cells assessed as cell growth at 10 uM by SRB assay

[25] = tested on: SK-MEL-5; experiment: Cytotoxicity against human SK-MEL-5 cells by SRB assay; conditions: read-out: LC50 (the source's name)
[26] = tested on: OVCAR-5; experiment: Cytotoxicity against human OVCAR5 cells by SRB assay; conditions: read-out: LC50 (the source's name)
[27] = tested on: K562; experiment: cells; conditions: Homo sapiens
Description: Growth inhibition of human K562 cells assessed as drug level required for 50% reduction in net protein increase by SRB assay relative to control

[28] = tested on: LOX IMVI; experiment: Cytotoxicity against human LOXIMVI cells by SRB assay; conditions: read-out: LC50 (the source's name)
[29] = tested on: UACC-257; experiment: cells; conditions: Homo sapiens
Description: Growth inhibition of human UACC257 cells assessed as cell growth at 10 uM by SRB assay

[30] = tested on: TK-10; experiment: Cytotoxicity against human TK10 cells by SRB assay; conditions: read-out: LC50 (the source's name)
[31] = tested on: IGROV-1; experiment: Cytotoxicity against human IGROV1 cells by SRB assay; conditions: read-out: LC50 (the source's name)
[32] = tested on: RPMI-8226; experiment: Cytotoxicity against human RPMI8226 cells by SRB assay; conditions: read-out: LC50 (the source's name)
[33] = tested on: A498; experiment: Cytotoxicity against human A498 cells by SRB assay; conditions: read-out: LC50 (the source's name)
[34] = tested on: HCT-15; experiment: Cytotoxicity against human HCT15 cells by SRB assay; conditions: read-out: LC50 (the source's name)
[35] = tested on: BT-549; experiment: cells; conditions: Homo sapiens
Description: Growth inhibition of human BT549 cells assessed as cell growth at 10 uM by SRB assay

[36] = tested on: IGROV-1; experiment: cells; conditions: Homo sapiens
Description: Growth inhibition of human IGROV1 cells assessed as cell growth at 10 uM by SRB assay

Structure (SMILES) | CC50 [1] [µM] | GI50 [2] [µM] | CC50 [3] [µM] | CC50 [4] [µM] | CC50 [5] [µM] | growth at 10 µM [6] [%] | CC50 [7] [µM] | CC50 [8] [µM] | GI50 [9] [µM] | growth at 10 µM [10] [%] | CC50 [11] [µM] | CC50 [12] [µM] | CC50 [13] [µM] | GI50 [14] [µM] | CC50 [15] [µM] | growth at 10 µM [19] [%] | growth at 10 µM [24] [%] | GI50 [27] [µM] | growth at 10 µM [29] [%] | CC50 [31] [µM] | further results
CCCCCCCC[N+](C)(CCCCCCCC)CCCCCCCC.O=S(=O)([N-]S(=O)(=O)C(F)(F)F)C(F)(F)F | 4.19 | 1.9 | 6.16 | 6.12 | 2.44 | -100 | 5.88 | 5.75 | 0.425 | -100 | 1.23 | 4.41 | 4.86 | 0.192 | 3.63 | 28.1 | -100 | 0.186 | -95.2 | > 100 | CC50 [16]: 4.47 µM; CC50 [17]: 4.31 µM; CC50 [18]: 4.1 µM; CC50 [20]: 8.13 µM; CC50 [21]: 4.52 µM; CC50 [22]: 4.06 µM; CC50 [23]: 4.32 µM; CC50 [25]: 0.677 µM; CC50 [26]: 8.17 µM; CC50 [28]: 1.08 µM; CC50 [30]: 4.86 µM; CC50 [32]: 0.951 µM; CC50 [33]: 6.36 µM; CC50 [34]: 5.23 µM
CCCCCCCCCCCCCCCCCCPCCCCCCCCCCCCCC (stereo not drawn) [MONO(OCTADECYL(TETRADECYL)PHOSPHONIUM) MONO(HEXAFLUOROPHOSPHATE(V)) MONO(TETRAFLUOROBORATE)] |  | 0.391 |  |  |  | -45 | > 100 | > 100 | 0.297 | -75.6 |  |  | > 100 | 0.05 |  | 12.1 | -54.3 | 0.038 | -59 | > 100 | growth at 10 µM [35]: -83.5%; growth at 10 µM [36]: -19.6%
CCCCCCCCCCCCCCCCCCPCCCCCCCCCCCCCC.O=S(=O)(NS(=O)(=O)C(F)(F)F)C(F)(F)F (stereo not drawn) | > 100 | 0.292 | > 100 | > 100 | 8.46 | -58.2 | > 100 | > 100 | 0.24 | -48.3 | 0.711 | > 100 | > 100 | 0.058 | > 100 | 62.4 | -100 | 0.041 | -34.6 | > 100 | CC50 [16]: > 100 µM; CC50 [17]: > 100 µM; CC50 [18]: > 100 µM; CC50 [20]: > 100 µM; CC50 [21]: > 100 µM; CC50 [22]: 4.44 µM; CC50 [23]: 5.62 µM; CC50 [25]: 0.829 µM; CC50 [26]: > 100 µM; CC50 [28]: 0.592 µM; CC50 [30]: > 100 µM; CC50 [32]: 0.098 µM; CC50 [33]: > 100 µM; CC50 [34]: > 100 µM

From ChEMBL document CHEMBL1153480, “Study on the potential anti-cancer activity of phosphonium and ammonium-based ionic liquids” (2009)
